Read-outs that look alike come from different tables or passages of the source.

A word on the EC50: it is the concentration that produces a half-maximal response.

Data set [1] has as its system wild-type Kv1.1. More on the design: method as in PMID 28391996. The conditions noted are these: prepulse current at −50 mV, 10 µM; cited from earlier work.
On the set-up of data set [2]: method as in earlier work. The conditions noted are these: following massage with lavender oil; cited from earlier work.
Data set [3] concerns the target T1, wild-type human Kv1.1 (Homo sapiens, UniProt Q09470).
T1 construct: expressed in transfected cells; host or cells: Xenopus laevis oocytes injected with cRNA (pTLNx vector)
Kind of data set: Two-electrode voltage clamp of oocytes expressing wild-type Kv1.1. The class given is cell-based. The conditions noted are these: for effect on Kv1.1 activity: compound 100 µM; for EM (unclamped oocyte membrane potential) / Slope / V0.5 Normalized tail current: in presence of 100 µM compound. The text has this:
Wild-type and mutant Kv1 cDNAs were generated (Genscript, Piscataway, NJ) in the pTLNx expression vector. As previously described, we generated cRNA transcripts encoding human Kv1.1 (wild-type and mutant) and Kv1.2, by in vitro transcription using the mMessage mMachine kit (Thermo Fisher Scientific), after vector linearization, from cDNA sub-cloned into plasmids (pTLNx) incorporating Xenopus laevis β-globin 5’ and 3’ UTRs flanking the coding region to enhance translation and cRNA stability. We injected defolliculated stage V and VI Xenopus laevis oocytes (Xenoocyte, Dexter, MI, US) with Kv1 cRNAs (1–5 ng). We incubated the oocytes at 16 °C in ND96 oocyte storage solution containing penicillin and streptomycin, with daily washing, for 2 days prior to two-electrode voltage-clamp (TEVC) recording.
We performed TEVC at room temperature using an OC-725C amplifier (Warner Instruments, Hamden, CT) and pClamp10 software (Molecular Devices, Sunnyvale, CA) 2 days after cRNA injection as described in the section above. For recording, oocytes we placed in a small-volume oocyte bath (Warner) and viewed with a dissection microscope. We sourced chemicals from Sigma. We studied effects of plant extracts and of compounds, solubilized directly in bath solution (in mM): 96 NaCl, 4 KCl, 1 MgCl2, 1 CaCl2, 10 HEPES (pH 7.6). We introduced extracts or compounds into the oocyte recording bath by gravity perfusion at a constant flow of 1 ml per minute for 3 min prior to recording. Pipettes were of 1–2 MΩ resistance when filled with 3 M KCl. We recorded currents in response to voltage pulses between −80 mV and +40 mV at 10 or 20 mV intervals from a holding potential of −80 mV, to yield current-voltage relationships and examine activation kinetics. To calculate the voltage dependence of activation (V0.5), tail currents were recorded at a voltage pulse of −50 mV immediately following prepulse voltages between −80 mV and +40 mV. We analyzed data using Clampfit (Molecular Devices) and Graphpad Prism software (GraphPad, San Diego, CA, USA), stating values as mean ± SEM. We plotted raw or normalized tail currents vs. prepulse voltage and fitted with a single Boltzmann function:1 g=(A1−A2)/1+exp[V1/2−V/Vs]y+A2 where g is the normalized tail conductance, A1 is the initial value at -∞, A2 is the final value at +∞, V1/2 is the half-maximal voltage of activation and Vs the slope factor.
Background: In two-electrode clamp one electrode senses voltage and the other passes current.

Data set [4] deals with T2, Kv1.1-E283K channels (Homo sapiens, UniProt Q09470, E283K).
T2 construct: expressed in transfected cells; host or cells: Xenopus laevis oocytes
Kind of data set: TEVC of oocytes injected with 100% Kv1.1-E283K cRNA. Type of data set: cell-based. The conditions noted are these: compound 1 µM.

Data set [5] addresses T3, Kv1.1-V408A channels (Homo sapiens, UniProt Q09470, V408A).
T3 construct: expressed in transfected cells; host or cells: Xenopus laevis oocytes
Kind of data set: TEVC of oocytes expressing 100% Kv1.1-V408A. The class given is cell-based. The conditions noted are these: compound 1 µM. The text has this:
(§1) EA1 mutant G311D is in the S4-5 linker of Kv1.1 (Fig. 5a) and produces a 65% prepulse current reduction both in Kv1.1-G311D and in Kv1.1/Kv1.1-G311D channels[43],[44]; either channel type was minimally responsive to the plant extracts tested (Supplementary Figs. 3 and 4). EA1 mutant L328V (which is associated with tetany and hypomagnesemia) is located in the intracellular end of Kv1.1 S5 (Fig. 5a) and results in complete current loss in a dominant negative manner, i.e., Kv1.1-L328V and Kv1.1/Kv1.1-L328V channels are each nonfunctional. The traditional ataxia remedy plant extracts were unable to rescue Kv1.1-L328V or Kv1.1/Kv1.1-L328V function (Supplementary Figs. 5 and 6). EA1 mutant V408A is in the intracellular-proximal end of Kv1.1 S6 (Fig. 5a) and reduces current, speeds deactivation, and increases C-type inactivation of Kv1.1[46]. Here, Native American ataxia remedy extracts had relatively minor effects on Kv1.1-V408A activity, with nettle and Pacific ninebark (roots or leaves) inducing hyperpolarizing shifts in EM, and Pacific ninebark leaves inducing a negative shift in the voltage dependence of activation, although this was not quantifiable due to the very small tail currents (Supplementary Fig. 7). Effects of the extracts on Kv1.1/Kv1.1-V408A activity were also relatively minor (Supplementary Fig. 8). […]
(§2) We performed TEVC at room temperature using an OC-725C amplifier (Warner Instruments, Hamden, CT) and pClamp10 software (Molecular Devices, Sunnyvale, CA) 2 days after cRNA injection as described in the section above. […] We recorded currents in response to voltage pulses between −80 mV and +40 mV at 10 or 20 mV intervals from a holding potential of −80 mV, to yield current-voltage relationships and examine activation kinetics. To calculate the voltage dependence of activation (V0.5), tail currents were recorded at a voltage pulse of −50 mV immediately following prepulse voltages between −80 mV and +40 mV. We analyzed data using Clampfit (Molecular Devices) and Graphpad Prism software (GraphPad, San Diego, CA, USA), stating values as mean ± SEM. […]

The target in data set [6] is T4, wild-type human Kv1.2 (Homo sapiens, UniProt P16389).
T4 construct: expressed in transfected cells; host or cells: Xenopus laevis oocytes injected with cRNA (pTLNx vector)
In words: Two-electrode voltage clamp of oocytes expressing wild-type Kv1.2. The class given is cell-based. As to the method:
We therefore first tested for activity of extracts (diluted 1:50 in bath solution to equal 5 mg plant solid starting material per ml) of each of the three plants on wild-type human Kv1.1 and closely related Kv1.2 expressed in Xenopus laevis oocytes, using manual two-electrode voltage clamp (TEVC). Strikingly, all three extracts altered Kv1 channel activity. […] Pacific ninebark (roots or leaves) had similar effects on Kv1.1 but negligible effects on Kv1.2.
We purchased live Urtica dioica (Common Nettle) from Crimson Sage Nursery (Orleans, CA, USA), cultivated it in Irvine CA, collected the aerial portions (primarily leaves) and then froze them until the day of extraction. We purchased Physocarpus capitatus (Pacific ninebark) live whole plant from Ozark Wildflower Company (Jasper, AR, USA) and separated the roots and aerial parts before extraction of each. We homogenized plant samples using a bead mill with porcelain beads in batches in 50 ml tubes (Omni International, Kennesaw, GA, United States). We purchased certified organic tree bark powders from Mountain Rose Herbs (Eugene, OR, USA) and dry raw Sophora japonica (fine pellets) from Teriya (People’s Republic of China). We purchased bladderwrack kelp extract capsules from Terra Vita (Brampton, Ontario, Canada) and discarded the outer capsule before extraction. We resuspended all plant powders and homogenates in 80% methanol/20% water (100 ml per 5 g solid) and then incubated for 48 h at room temperature, occasionally inverting the bottles to resuspend the extracts. We next filtered the extracts through Whatman filter paper #1 (Whatman, Maidstone, UK), and then removed the methanol using evaporation in a fume hood for 24–48 h at room temperature. We next centrifuged extracts for 10 min at 15 °C, 4000 RCF to remove the remaining particulate matter, followed by storage at −20 °C. On the day of electrophysiological recording, we thawed the extracts and diluted them 1:50 in bath solution (see below), to equal 5 mg plant solid starting material per ml, immediately before use.
Wild-type and mutant Kv1 cDNAs were generated (Genscript, Piscataway, NJ) in the pTLNx expression vector. […]
as §2, with “mV.” for “mV. We analyzed data using Clampfit (Molecular Devices) and Graphpad Prism software (GraphPad, San Diego, CA, USA), stating values as mean ± SEM.”

The target in data set [7] is T5, Kv1.1-L328V channels (Homo sapiens, UniProt Q09470, L328V).
T5 construct: expressed in transfected cells; host or cells: Xenopus laevis oocytes
Kind of data set: TEVC of oocytes expressing 100% Kv1.1-L328V. The class given is cell-based. The conditions noted are these: compound 1 µM.
From the text: as §1, §2

The mark [8] stands for this setting: dose response, Fig. 4, read-out: EC50 for ΔV0.5activation.

T1 sequence (Q09470 whole entry): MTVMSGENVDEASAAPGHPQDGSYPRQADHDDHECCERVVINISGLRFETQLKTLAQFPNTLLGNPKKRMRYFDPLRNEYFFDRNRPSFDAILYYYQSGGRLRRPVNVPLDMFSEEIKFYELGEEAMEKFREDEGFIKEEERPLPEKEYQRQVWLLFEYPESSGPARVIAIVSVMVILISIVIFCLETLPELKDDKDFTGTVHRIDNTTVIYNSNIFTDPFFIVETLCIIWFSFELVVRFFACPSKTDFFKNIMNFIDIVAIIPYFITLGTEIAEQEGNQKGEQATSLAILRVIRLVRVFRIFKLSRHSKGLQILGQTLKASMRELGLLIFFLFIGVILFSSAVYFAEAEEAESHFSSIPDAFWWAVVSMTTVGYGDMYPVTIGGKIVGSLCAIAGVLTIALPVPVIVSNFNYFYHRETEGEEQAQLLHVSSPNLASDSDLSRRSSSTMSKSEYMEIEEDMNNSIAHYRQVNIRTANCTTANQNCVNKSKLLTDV
T4 sequence (P16389 whole entry): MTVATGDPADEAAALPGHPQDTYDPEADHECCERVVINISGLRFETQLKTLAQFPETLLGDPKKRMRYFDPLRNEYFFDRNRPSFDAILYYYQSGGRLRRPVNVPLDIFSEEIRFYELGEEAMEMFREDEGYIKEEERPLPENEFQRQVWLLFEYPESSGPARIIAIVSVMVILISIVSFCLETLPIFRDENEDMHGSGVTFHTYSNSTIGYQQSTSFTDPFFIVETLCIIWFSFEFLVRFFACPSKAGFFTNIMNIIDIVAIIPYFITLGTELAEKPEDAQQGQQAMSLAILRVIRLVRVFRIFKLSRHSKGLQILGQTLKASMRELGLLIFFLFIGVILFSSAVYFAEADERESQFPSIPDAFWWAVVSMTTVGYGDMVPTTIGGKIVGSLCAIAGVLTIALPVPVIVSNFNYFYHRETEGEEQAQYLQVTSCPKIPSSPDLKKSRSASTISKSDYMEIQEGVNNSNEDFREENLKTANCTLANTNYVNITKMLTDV
T3 sequence (Q09470 whole entry V408A): as the sequence (Q09470 whole entry) above, with V408A counted along it
T5 sequence (Q09470 whole entry L328V): as the sequence (Q09470 whole entry) above, with L328V counted along it
T2 sequence (Q09470 whole entry E283K): as the sequence (Q09470 whole entry) above, with E283K counted along it

`C=C[C@@]1(C)C=C2CC[C@@H]3[C@](C)(CCC[C@@]3(C)C(=O)O)[C@H]2CC1` [Pimaric acid]: the “increase of wild-type Kv1.1 currents” value in data set [1] is given as “up to eightfold”.
`C=CC(C)(CCC=C(C)C)OC(C)=O` (stereo not shown) [linalyl acetate]: the “time to peak levels in the blood” value in data set [2] was “under 20 min”.
In the case of `C=CC(C)(O)CCC=C(C)C` (stereo not shown) [linalool], the “time to peak levels in the blood” value in data set [2] was “under 20 min”.
As to `O=C1CCC[C@@H]2[C@H]3CCC[N+]4([O-])CCC[C@@H](CN12)[C@@H]34` (stereo partly shown) [oxymatrine], in data set [3], the “effect on Kv1.1 activity” value is “no effect”, the “EM (unclamped oocyte membrane potential)” value is reported as -39.88 ± 2.34 mV, the Slope turned out to be 8.73 ± 0.24 mV and the “V0.5 Normalized tail current” value is -21.86 ± 0.64 mV.
The like results for `O.Oc1cc(O)c2c(c1)O[C@H](c1ccc(O)c(O)c1)[C@@H](O)C2` [catechin hydrate] were, in that order, “did not alter Kv1.1 activity”, -31.33 ± 2.31 mV, 5.83 ± 0.38 mV and -14.70 ± 0.44 mV.
The like results for `O=c1c(O)c(-c2ccc(O)c(O)c2)oc2cc(O)cc(O)c12` [quercetin] were, in that order, “did not alter Kv1.1 activity”, -43.50 ± 1.46 mV, 6.00 ± 1.06 mV and -25.12 ± 1.81 mV.
`O=c1c(O)c(-c2ccc(O)cc2)oc2cc(O)cc(O)c12` [kaempferol]: in data set [3], the “effect on Kv1.1 activity” value is “did not alter Kv1.1 activity”, the “EM (unclamped oocyte membrane potential)” value was -45.25 ± 1.83 mV, the Slope was found to be 8.68 ± 0.87 mV and the “V0.5 Normalized tail current” value is given as -22.40 ± 0.84 mV.
For `O=c1cccc2n1C[C@@H]1CNC[C@H]2C1` [cytisine] the same measures were “did not alter Kv1.1 activity”, -41.60 ± 1.77 mV, 8.15 ± 1.31 mV and -23.96 ± 1.37 mV.
`C[C@@H]1O[C@@H](OC[C@H]2O[C@@H](Oc3c(-c4ccc(O)c(O)c4)oc4cc(O)cc(O)c4c3=O)[C@H](O)[C@@H](O)[C@@H]2O)[C@H](O)[C@H](O)[C@H]1O` [rutin]: the “effect on channel activity” value in data set [4], in data set [5] and in data set [7] was “ineffective” in each case. Moreover, the EC50 in data set [6] (setting [8]) came out at 72 ± 16 nM; in data set [6] (oocytes expressing Kv1.2, read-out: EC50 for hyperpolarization of EM) it was 406 ± 62 nM; in data set [3] (setting [8]), 385 ± 12 nM; in data set [3] (oocytes expressing wild-type Kv1.1, read-out: EC50 for hyperpolarization of EM), 150 ± 38 nM. Also, the “effect on Kv1.1 activity” value in data set [3] was “lesser but still robust opening effect”. Further, the “EM (unclamped oocyte membrane potential)” value in data set [3] is on record as -56.75 ± 0.28 mV. For the same molecule, the Slope in data set [3] was 11.79 ± 2.88 mV. The “V0.5 Normalized tail current” value in data set [3] is -31.59 ± 3.22 mV.

Source of the values: paper PMC10244465, “Native American ataxia medicines rescue ataxia-linked mutant potassium channel activity via binding to the voltage sensing domain” (Nature Communications, 2023).
